Measurements: US7399762B2, “Opioid receptor agonist compounds and their use in treatment of pain” (Research Triangle Institute, priority 2005, dated 2008)

Columns and labels:
Type in all cases: biochemical
[1] = molecular target: T1, human delta opioid receptor (Homo sapiens, UniProt P41143); test: [35S]GTP-γ-S binding stimulation, intrinsic activity at delta receptor; settings: for intrinsic activity at the delta opioid receptor (in words): compared with DPDPE; for Emax: read-out: Agonist δ Emax (% DPDPE)
T1 construct: expressed in transfected cells; host or cells: CHO cells (membrane homogenates)
T1 sequence (P41143 whole entry): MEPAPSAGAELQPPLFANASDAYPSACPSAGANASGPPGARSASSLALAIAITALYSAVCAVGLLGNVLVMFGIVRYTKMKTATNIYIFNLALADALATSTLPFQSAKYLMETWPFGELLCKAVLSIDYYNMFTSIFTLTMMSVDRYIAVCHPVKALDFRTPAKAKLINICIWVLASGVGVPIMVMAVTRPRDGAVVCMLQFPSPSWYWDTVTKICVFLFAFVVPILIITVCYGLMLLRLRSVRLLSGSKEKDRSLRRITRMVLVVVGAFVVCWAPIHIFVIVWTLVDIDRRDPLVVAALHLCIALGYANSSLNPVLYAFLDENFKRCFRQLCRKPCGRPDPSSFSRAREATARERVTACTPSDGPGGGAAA
Description: (§1) Determination of intrinsic activity. Test compounds 2.8 and 2.11 were assayed for their ability to stimulate [35S]GTP-γ-S binding in CHO cell membrane homogenates expressing either the human mu or human delta opioid receptor. The compounds were assayed in triplicate at eight different concentrations. […] The membranes were incubated with one of eight concentrations of positive control or test compound, 0.1 nM [35S]GTP-γ-S and 10 μM GDP in a 50 mM HEPES buffer (pH 7.4) at room temperature for one hour, after which bound radioligand was separated from free via rapid vacuum filtration over GF-B filters using a Brandel Scientific (Gaithersburg, MD) 96-well harvester. Bound radioactivity was determined using a TopCount 12-detector instrument (Packard Instruments) using standard scintillation counting techniques. The data were normalized to samples containing vehicle (basal binding), and a three-parameter logistic curve fit to the data using Prism (version 3.0, GraphPad Software, Inc., San Diego, Calif.). The EC50 and upper asymptote (Emax) were calculated for each compound and the data reported as mean ±SEM.

[2] = molecular target: T2, human mu opioid receptor (Homo sapiens, UniProt P35372); test: [35S]GTP-γ-S binding stimulation, intrinsic activity at mu receptor; settings: for intrinsic activity at the mu opioid receptor (in words): compared with DAMGO
T2 construct: expressed in transfected cells; host or cells: CHO cells (membrane homogenates)
T2 sequence (P35372 whole entry): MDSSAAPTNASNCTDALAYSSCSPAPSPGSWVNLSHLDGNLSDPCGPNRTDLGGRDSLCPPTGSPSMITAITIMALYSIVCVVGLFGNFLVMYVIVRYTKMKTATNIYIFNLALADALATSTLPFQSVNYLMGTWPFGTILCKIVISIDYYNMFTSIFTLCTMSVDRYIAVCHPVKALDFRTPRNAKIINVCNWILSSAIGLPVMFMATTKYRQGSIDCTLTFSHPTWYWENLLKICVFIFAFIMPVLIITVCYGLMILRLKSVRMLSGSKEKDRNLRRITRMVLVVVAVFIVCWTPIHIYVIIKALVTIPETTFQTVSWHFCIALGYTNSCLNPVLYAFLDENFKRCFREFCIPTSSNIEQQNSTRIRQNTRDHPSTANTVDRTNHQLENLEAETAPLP
Description: as §1

[3] = molecular target: T3, human kappa opioid receptor (Homo sapiens, UniProt P41145); test: Apparent affinity (Ke): shift of U69,593 dose response curve in [35S]GTP-γ-S binding
T3 construct: expressed in transfected cells; host or cells: CHO cells (membrane homogenates)
T3 sequence (P41145 whole entry): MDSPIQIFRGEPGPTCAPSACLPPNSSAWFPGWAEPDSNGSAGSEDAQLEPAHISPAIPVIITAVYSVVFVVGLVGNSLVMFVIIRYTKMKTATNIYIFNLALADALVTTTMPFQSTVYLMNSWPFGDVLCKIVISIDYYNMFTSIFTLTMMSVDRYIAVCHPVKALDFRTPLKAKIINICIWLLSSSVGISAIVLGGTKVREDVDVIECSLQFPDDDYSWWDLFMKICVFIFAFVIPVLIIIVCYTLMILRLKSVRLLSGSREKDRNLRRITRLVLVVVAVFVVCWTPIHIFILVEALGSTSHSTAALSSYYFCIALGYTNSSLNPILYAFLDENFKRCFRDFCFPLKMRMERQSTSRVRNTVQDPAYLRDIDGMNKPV
Text: Determination of apparent affinity (Ke). The ability of a single concentration of test compound to shift the U69,593 (full kappa opioid receptor agonist) dose response curve to the right was used to determine the apparent affinity (Ke) of the test compounds. Assay conditions and analysis of the data were identical to that detailed for the determination of intrinsic activity except that membrane homogenates from CHO cells expressing the human kappa opioid receptor were used, and a single, identical concentration of test compound was included with each assayed concentration of kappa agonist. […]

Structure (SMILES) | intrinsic activity at the delta opioid receptor (in words) [1] | Emax [1] | intrinsic activity at the mu opioid receptor (in words) [2] | Emax ([2]; relative to Emax of DAMGO, mean ±SEM, read-out: Agonist μ Emax (% DAMGO)) | activity at the kappa opioid receptor (in words) [3] | maximum stimulation of [35S]GTP-γ-S binding compared with DAMGO (t-test) ([2]; p>0.05)
C[C@@H]1CN(CCCc2ccccc2)[C@H]2C[C@H](N)C[C@]1(c1cccc(O)c1)C2 [Compound 2.8, (−)-3-[(1 R,4S,5S,7R)-7-Amino-4-methyl-2-(3-phenylpropyl)-2-aza-bicyclo[3.3.1]non-5-yl]phenol] | potent full agonist | 101 ± 14% | partial agonist | 74 ± 12% | good inhibitor | –
C[C@@H](NC(=O)[C@@H](N)Cc1ccc(O)cc1)C(=O)NCC(=O)N(C)[C@@H](Cc1ccccc1)C(=O)NCCO [DAMGO, (D-Ala^2,MePhe^4,Gly-ol^5)enkephalin, reference compound] | – | – | full agonist | – | – | –
CNC1CC2CC(c3cccc(O)c3)(C1)C(C)CN2CCCc1ccccc1 (centres unmarked) [Compound 2.11, 5-(3-Hydroxyphenyl)-4-methyl-7-methylamino-2-(3-phenylprop-1-yl)-2-azabicyclo[3.3.1]nononane] | partial agonist | 79.7 ± 7.7% | full agonist | – | good inhibitor | not statistically different
